Data on seven compounds can be found in article PMC7468280 (Scientific Reports, 2020).

A short description of one series: Stability in human serum. The format is in vitro ADME. As to conditions: 1 mg/ml peptide, 90% human serum in HBSS, 37 °C, HPLC at 220 nm, three replicates (b16 says human plasma). As for the experimental part: Figure 3 Representation of the percentage of peptide that remains in solution with respect to the initial one at different times. The percentage is calculated by dividing the area (HPLC analysis) at time “t” by the initial area of the peptide in the test conditions. Bar errors represents SEM of three replicates. Software GraphPad Prism 5.0 (https://graphpad-prism.software.informer.com/5.0/) was used.
The stability of E1P47 peptides was studied in human serum, a protease-rich media. Briefly, a concentration of 1 mg/ml of each peptide was incubated with 90% human serum in Hanks Balanced Salt Solution (HBSS) at 37 °C and aliquots of 40 µl were taken at different time-points during 24 h and treated with 200 µl of methanol to immediately precipitate the serum proteins. After 30 min of centrifugation at 4 °C, the supernatant was analysed by HPLC at 220 nm to calculate the content of intact peptide in each sample and by UPLC/MS to identify the main metabolites generated after the enzymatic hydrolysis.

Series [1] relates to HIV-1BaL. As to conditions: read-out: IC50 against HIV-1BaL, TZM-bl cells sustained, peptide 1 h before virus, 48 h culture in presence of drug (sustained), luciferase, mean ± SEM of three independent experiments in triplicate.
For series [2], the system named is HIV-1BaL. Particulars: human colorectal explants, p24 ELISA, mean ± SEM of three independent experiments in triplicate. Background: ELISA stands for enzyme-linked immunosorbent assay.
A short description of series [3]: 90% human serum in Hanks Balanced Salt Solution (HBSS). Particulars: 37 °C, up to 24 h.
The mark [4] stands for this setting: read-out: IC50 against HIV-1BaL, colorectal explants pulse, peptide 1 h before and 2 h during virus (3 h pulse), washed, 15 days culture without drug.
Where [5] appears, read: read-out: IC50 against HIV-1BaL, colorectal explants sustained, peptide before and during virus and throughout 15 days culture (sustained).

“Also recorded” adds a separate entry of the source. Read-outs that look alike come from different tables or passages of the source. Positions of bridges follow the written chain, without caps; N, C: chain ends. Non-standard residues stand in square brackets, D forms with d. Residues, ends and D or L forms follow the SMILES beside them. No end group written: not given here.

What is called IC50 is the concentration needed to halve the response being measured.

For `CC[C@H](C)[C@H](NC(=O)[C@@H](NC(=O)CNC(=O)[C@H](CCCNC(=N)N)NC(=O)[C@H](Cc1c[nH]c2ccccc12)NC(=O)[C@H](Cc1ccccc1)NC(=O)[C@H](CC(=O)O)NC(=O)[C@H](Cc1ccccc1)NC(=O)[C@@H]1CCCN1C(=O)[C@@H](NC(=O)[C@H](CCCCN)NC(=O)[C@H](Cc1c[nH]c2ccccc12)NC(=O)[C@H](CC(C)C)NC(=O)[C@H](Cc1ccc(O)cc1)NC(=O)[C@H](CCC(=O)O)NC(=O)[C@H](CC(C)C)NC(=O)[C@@H](NC(=O)[C@@H](N)Cc1c[nH]c2ccccc12)[C@@H](C)CC)C(C)C)C(C)C)C(N)=O` [E1P47] (H-WILEYLWKVPFDFWRGVI-NH2), the metabolised at 8 h, 1 mg/ml in “Stability in human serum” (8 h, methanol precipitation, read-out: peptide degraded at 8 h) was about 50%. The IC50 with HIV-1BaL [1] worked out at 0.76 ± 0.08 µM; with HIV-1BaL [2] (setting [4]), 38.5 ± 17.2 µM; in the series on HIV-1BaL [2] (setting [5]), 8 ± 4.6 µM.

`CC[C@@H](C)[C@@H](N)C(=O)N[C@@H](C(=O)NCC(=O)N[C@H](CCCNC(=N)N)C(=O)N[C@H](Cc1c[nH]c2ccccc12)C(=O)N[C@H](Cc1ccccc1)C(=O)N[C@H](CC(=O)O)C(=O)N[C@H](Cc1ccccc1)C(=O)N1CCC[C@@H]1C(=O)N[C@@H](C(=O)N[C@H](CCCCN)C(=O)N[C@H](Cc1c[nH]c2ccccc12)C(=O)N[C@H](CC(C)C)C(=O)N[C@H](Cc1ccc(O)cc1)C(=O)N[C@H](CCC(=O)O)C(=O)N[C@H](CC(C)C)C(=O)N[C@@H](C(=O)N[C@H](Cc1c[nH]c2ccccc12)C(N)=O)[C@H](C)CC)C(C)C)C(C)C` [RE-E1P47] (H-[dI][dV]G[dR][dW][dF][dD][dF][dP][dV][dK][dW][dL][dY][dE][dL][dI][dW]-NH2): the “stability to human plasma/serum proteases (in words)” value in the series “Stability in human serum” (up to 24 h) is reported as “remained practically unaltered for almost 24 h”. Further, the concentration for half-maximal inhibition (IC50) in the series with HIV-1BaL [2] (setting [4]) worked out at 28.7 ± 23.2 µM; in the series with HIV-1BaL [2] (setting [5]) it was 3.7 ± 1.7 µM.

For the compound `CC[C@H](C)[C@H](NC(=O)[C@@H](NC(=O)CNC(=O)[C@@H]1CCCCNC(=O)C[C@H](NC(=O)[C@H](Cc2ccccc2)NC(=O)[C@@H]2CCCN2C(=O)[C@@H](NC(=O)[C@H](CCCCN)NC(=O)[C@H](Cc2c[nH]c3ccccc23)NC(=O)[C@H](CC(C)C)NC(=O)[C@H](Cc2ccc(O)cc2)NC(=O)[C@H](CCC(=O)O)NC(=O)[C@H](CC(C)C)NC(=O)[C@@H](NC(=O)[C@@H](N)Cc2c[nH]c3ccccc23)[C@@H](C)CC)C(C)C)C(=O)N[C@@H](Cc2ccccc2)C(=O)N[C@@H](Cc2c[nH]c3ccccc23)C(=O)N1)C(C)C)C(N)=O` [StP1-E1P47] (H-WILEYLWKVPFDFWKGVI-NH2; lactam 12-15), the half-inhibitory concentration (IC50) worked out at 0.11 ± 0.01 µM in the series with HIV-1BaL [1], 33 ± 27.4 µM in the series with HIV-1BaL [2] (setting [4]) and 2.8 ± 0.5 µM in the series with HIV-1BaL [2] (setting [5]).

Consider `CC[C@H](C)[C@H](NC(=O)[C@@H](NC(=O)CNC(=O)[C@H](CCCNC(=N)N)NC(=O)[C@H](Cc1c[nH]c2ccccc12)NC(=O)[C@H](Cc1ccccc1)NC(=O)[C@H](CC(=O)O)NC(=O)[C@H](Cc1ccccc1)NC(=O)[C@@H]1CCCN1C(=O)[C@@H](NC(=O)[C@@H]1CCCCNC(=O)CC[C@H](NC(=O)[C@H](CC(C)C)NC(=O)[C@@H](NC(=O)[C@@H](N)Cc2c[nH]c3ccccc23)[C@@H](C)CC)C(=O)N[C@@H](Cc2ccc(O)cc2)C(=O)N[C@@H](CC(C)C)C(=O)N[C@@H](Cc2c[nH]c3ccccc23)C(=O)N1)C(C)C)C(C)C)C(N)=O` [StP2-E1P47] (H-WILEYLWKVPFDFWRGVI-NH2; lactam 4-8), for which the results for the half-inhibitory concentration (IC50) with HIV-1BaL [1], with HIV-1BaL [2] (setting [4]) and in the series on HIV-1BaL [2] (setting [5]) were 0.16 ± 0.01 µM, 32 ± 15.5 µM and 2.9 ± 0.4 µM, respectively.

With WILEYLWKVPFDFWKGVI-NH2, in series [3], the cleaved bond entry is on record as “Trp7-K8, major” and the not cleaved result is “intact”.

With WILEYLWKVPFDFWRGVI, the cleaved bond result in series [3] is recorded as “Glu4-Y5, major; also recorded: Gly16-V17, major; also recorded: Trp1-I2, major; also recorded: Phe11-D12, major; also recorded: Trp7-K8, major”.

Consider WILEYLWKVPFDFWRGVI-NH2, for which, in series [3], the cleaved bond entry is reported as “Phe11-D12, major” and the not cleaved entry is recorded as “intact”.
